In PubChem BioAssay (NCI):
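Exposure lasted 48 hours, with cells grown in 96-well plates and compounds tested at five concentrations. GI50: concentration for 50% inhibition of growth. TGI: total growth inhibition.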

Key:
Assay in all cases: growth of human tumour cells (NCI), 48 h
SF-295 CNS = system: SF-295 CNS
HCT-15 colon = system: HCT-15 colon
786-0 renal = system: 786-0 renal
HOP-62 NSCLC = system: HOP-62 NSCLC
NCI-H226 lung = system: NCI-H226 lung
MDA-MB-231 breast = system: MDA-MB-231 breast
SK-MEL-28 melanoma = system: SK-MEL-28 melanoma
SN12C renal = system: SN12C renal
OVCAR-3 ovarian = system: OVCAR-3 ovarian
A498 renal = system: A498 renal
KM12 colon = system: KM12 colon
BT-549 breast = system: BT-549 breast
T-47D breast = system: T-47D breast
MCF7 breast = system: MCF7 breast
U251 CNS = system: U251 CNS
SW-620 colon = system: SW-620 colon
A549 NSCLC = system: A549 NSCLC
EKVX NSCLC = system: EKVX NSCLC
HT29 colon = system: HT29 colon
ACHN renal = system: ACHN renal
CAKI-1 renal = system: CAKI-1 renal
HCC-2998 colon = system: HCC-2998 colon
OVCAR-8 ovarian = system: OVCAR-8 ovarian
NCI/ADR-RES ovarian = system: NCI/ADR-RES ovarian
M14 melanoma = system: M14 melanoma
SNB-75 CNS = system: SNB-75 CNS
HL-60(TB) leukemia = system: HL-60(TB) leukemia
SNB-19 CNS = system: SNB-19 CNS
OVCAR-5 ovarian = system: OVCAR-5 ovarian
SK-MEL-5 melanoma = system: SK-MEL-5 melanoma
RXF 393 renal = system: RXF 393 renal
PC-3 prostate = system: PC-3 prostate
SF-268 CNS = system: SF-268 CNS
NCI-H522 lung = system: NCI-H522 lung
SR leukemia = system: SR leukemia
COLO 205 colon = system: COLO 205 colon
SF-539 CNS = system: SF-539 CNS
MALME-3M melanoma = system: MALME-3M melanoma
K-562 leukemia = system: K-562 leukemia
MDA-MB-435 = system: MDA-MB-435
DU-145 prostate = system: DU-145 prostate
HS 578T breast = system: HS 578T breast
NCI-H460 lung = system: NCI-H460 lung
UACC-62 melanoma = system: UACC-62 melanoma
SK-MEL-2 melanoma = system: SK-MEL-2 melanoma
TK-10 renal = system: TK-10 renal
NCI-H23 lung = system: NCI-H23 lung
CCRF-CEM leukemia = system: CCRF-CEM leukemia
OVCAR-4 ovarian = system: OVCAR-4 ovarian
RPMI-8226 leukemia = system: RPMI-8226 leukemia
HCT-116 colon = system: HCT-116 colon
LOX IMVI melanoma = system: LOX IMVI melanoma
UACC-257 melanoma = system: UACC-257 melanoma
HOP-92 NSCLC = system: HOP-92 NSCLC
SK-OV-3 ovarian = system: SK-OV-3 ovarian
IGROV1 ovarian = system: IGROV1 ovarian
UO-31 renal = system: UO-31 renal
MOLT-4 leukemia = system: MOLT-4 leukemia

SMILES: O=C(N/N=c1/ccoc2cccnc12)N1CCN(c2ncccn2)CC1
- GI50 (SF-295 CNS): 268 nM
- TGI (SF-295 CNS): 6030 nM
- GI50 (HCT-15 colon): < 10 nM
- TGI (HCT-15 colon): 10100 nM
- GI50 (786-0 renal): 291 nM
- TGI (786-0 renal): 2590 nM
- GI50 (HOP-62 NSCLC): 43.6 nM
- TGI (HOP-62 NSCLC): 7420 nM
- TGI (NCI-H226 lung): 2560 nM
- GI50 (MDA-MB-231 breast): 278 nM
- TGI (MDA-MB-231 breast): 7410 nM
- GI50 (SK-MEL-28 melanoma): 996 nM
- TGI (SK-MEL-28 melanoma): 13300 nM
- GI50 (SN12C renal): 1570 nM
- TGI (SN12C renal): 14800 nM
- GI50 (OVCAR-3 ovarian): < 10 nM
- TGI (OVCAR-3 ovarian): 4460 nM
- GI50 (A498 renal): 503 nM
- TGI (A498 renal): 2870 nM
- GI50 (KM12 colon): 371 nM
- TGI (KM12 colon): 10200 nM
- GI50 (BT-549 breast): 321 nM
- TGI (BT-549 breast): 3370 nM
- GI50 (T-47D breast): < 10 nM
- TGI (T-47D breast): 7850 nM
- GI50 (MCF7 breast): < 10 nM
- TGI (MCF7 breast): 11900 nM
- GI50 (U251 CNS): 77.7 nM
- TGI (U251 CNS): 9150 nM
- GI50 (SW-620 colon): < 13.1 nM
- TGI (SW-620 colon): 10600 nM
- GI50 (A549 NSCLC): 324 nM
- TGI (A549 NSCLC): 9810 nM
- GI50 (EKVX NSCLC): 160 nM
- TGI (EKVX NSCLC): 10600 nM
- GI50 (HT29 colon): < 10 nM
- TGI (HT29 colon): 7390 nM
- GI50 (ACHN renal): 14.5 nM
- TGI (ACHN renal): 13200 nM
- GI50 (CAKI-1 renal): 425 nM
- TGI (CAKI-1 renal): 7640 nM
- GI50 (HCC-2998 colon): 905 nM
- TGI (HCC-2998 colon): 6590 nM
- GI50 (OVCAR-8 ovarian): 31 nM
- TGI (OVCAR-8 ovarian): 6670 nM
- GI50 (NCI/ADR-RES ovarian): < 19.3 nM
- TGI (NCI/ADR-RES ovarian): 12300 nM
- GI50 (M14 melanoma): 83.1 nM
- TGI (M14 melanoma): 2590 nM
- GI50 (SNB-75 CNS): 1630 nM
- TGI (SNB-75 CNS): 9330 nM
- GI50 (HL-60(TB) leukemia): 14.9 nM
- TGI (HL-60(TB) leukemia): 1690 nM
- GI50 (SNB-19 CNS): 804 nM
- TGI (SNB-19 CNS): 16800 nM
- GI50 (OVCAR-5 ovarian): 1500 nM
- TGI (OVCAR-5 ovarian): 38300 nM
- GI50 (SK-MEL-5 melanoma): 383 nM
- TGI (SK-MEL-5 melanoma): 2970 nM
- GI50 (RXF 393 renal): 1090 nM
- TGI (RXF 393 renal): 4030 nM
- GI50 (PC-3 prostate): < 10 nM
- TGI (PC-3 prostate): 6380 nM
- GI50 (SF-268 CNS): 795 nM
- TGI (SF-268 CNS): 15100 nM
- GI50 (NCI-H522 lung): 1020 nM
- TGI (NCI-H522 lung): 17200 nM
- GI50 (SR leukemia): 153 nM
- TGI (SR leukemia): 15600 nM
- GI50 (COLO 205 colon): < 10 nM
- TGI (COLO 205 colon): 7570 nM
- GI50 (SF-539 CNS): 1390 nM
- TGI (SF-539 CNS): 9580 nM
- GI50 (MALME-3M melanoma): 1170 nM
- TGI (MALME-3M melanoma): 7220 nM
- GI50 (K-562 leukemia): < 10 nM
- TGI (K-562 leukemia): 4820 nM
- GI50 (MDA-MB-435): 568 nM
- TGI (MDA-MB-435): 8240 nM
- GI50 (DU-145 prostate): 796 nM
- TGI (DU-145 prostate): 13100 nM
- GI50 (HS 578T breast): 1070 nM
- TGI (HS 578T breast): 24500 nM
- GI50 (NCI-H460 lung): 89.6 nM
- TGI (NCI-H460 lung): 11100 nM
- GI50 (UACC-62 melanoma): 457 nM
- TGI (UACC-62 melanoma): 5120 nM
- GI50 (SK-MEL-2 melanoma): 1110 nM
- TGI (SK-MEL-2 melanoma): 8420 nM
- GI50 (TK-10 renal): 992 nM
- TGI (TK-10 renal): 8080 nM
- GI50 (NCI-H23 lung): 30.8 nM
- TGI (NCI-H23 lung): 16700 nM
- GI50 (CCRF-CEM leukemia): < 10 nM
- TGI (CCRF-CEM leukemia): > 54400 nM
- GI50 (OVCAR-4 ovarian): < 12.9 nM
- TGI (OVCAR-4 ovarian): 4650 nM
- GI50 (RPMI-8226 leukemia): < 10 nM
- TGI (RPMI-8226 leukemia): 2040 nM
- GI50 (HCT-116 colon): < 10 nM
- TGI (HCT-116 colon): 2250 nM
- GI50 (LOX IMVI melanoma): < 15.8 nM
- TGI (LOX IMVI melanoma): 5120 nM
- GI50 (UACC-257 melanoma): 38.7 nM
- TGI (UACC-257 melanoma): 5150 nM
- GI50 (HOP-92 NSCLC): 17 nM
- TGI (HOP-92 NSCLC): 2680 nM
- GI50 (SK-OV-3 ovarian): 194 nM
- TGI (SK-OV-3 ovarian): 4550 nM
- GI50 (IGROV1 ovarian): < 10 nM
- TGI (IGROV1 ovarian): 7980 nM
- GI50 (UO-31 renal): 397 nM
- TGI (UO-31 renal): 3960 nM
- GI50 (MOLT-4 leukemia): < 12.9 nM
- TGI (MOLT-4 leukemia): 8060 nM
